In US20040048866A1 (priority 2002, published 2004):

Biological target: T1, α1 and β1 subunits of guanylate cyclase (sGC), expressed in Sf9 cells (Homo sapiens, UniProt Q02108+Q02153)
T1 construct: made in house; host or cells: Sf9 insect cells (baculovirus co-infection); high-speed supernatant used unpurified
T1 sequence (Q02108 1-690): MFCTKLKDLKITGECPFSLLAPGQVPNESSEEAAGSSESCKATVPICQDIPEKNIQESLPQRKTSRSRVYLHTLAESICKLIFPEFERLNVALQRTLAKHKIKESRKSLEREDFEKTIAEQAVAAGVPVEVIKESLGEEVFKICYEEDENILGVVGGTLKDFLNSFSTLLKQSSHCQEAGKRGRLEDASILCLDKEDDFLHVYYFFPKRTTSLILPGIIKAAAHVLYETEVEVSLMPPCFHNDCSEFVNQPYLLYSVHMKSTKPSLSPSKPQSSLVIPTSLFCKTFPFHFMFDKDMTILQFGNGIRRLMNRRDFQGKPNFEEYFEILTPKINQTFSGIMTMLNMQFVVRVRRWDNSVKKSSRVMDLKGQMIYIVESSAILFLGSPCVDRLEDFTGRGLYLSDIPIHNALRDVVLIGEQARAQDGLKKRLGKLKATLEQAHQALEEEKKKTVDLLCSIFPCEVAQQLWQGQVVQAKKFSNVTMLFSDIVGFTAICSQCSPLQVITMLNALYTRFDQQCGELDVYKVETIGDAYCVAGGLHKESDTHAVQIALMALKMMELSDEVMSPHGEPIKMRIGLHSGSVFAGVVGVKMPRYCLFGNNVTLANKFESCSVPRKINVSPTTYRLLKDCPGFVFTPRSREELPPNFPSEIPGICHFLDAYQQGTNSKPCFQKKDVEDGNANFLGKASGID
T1 sequence (Q02153 1-619): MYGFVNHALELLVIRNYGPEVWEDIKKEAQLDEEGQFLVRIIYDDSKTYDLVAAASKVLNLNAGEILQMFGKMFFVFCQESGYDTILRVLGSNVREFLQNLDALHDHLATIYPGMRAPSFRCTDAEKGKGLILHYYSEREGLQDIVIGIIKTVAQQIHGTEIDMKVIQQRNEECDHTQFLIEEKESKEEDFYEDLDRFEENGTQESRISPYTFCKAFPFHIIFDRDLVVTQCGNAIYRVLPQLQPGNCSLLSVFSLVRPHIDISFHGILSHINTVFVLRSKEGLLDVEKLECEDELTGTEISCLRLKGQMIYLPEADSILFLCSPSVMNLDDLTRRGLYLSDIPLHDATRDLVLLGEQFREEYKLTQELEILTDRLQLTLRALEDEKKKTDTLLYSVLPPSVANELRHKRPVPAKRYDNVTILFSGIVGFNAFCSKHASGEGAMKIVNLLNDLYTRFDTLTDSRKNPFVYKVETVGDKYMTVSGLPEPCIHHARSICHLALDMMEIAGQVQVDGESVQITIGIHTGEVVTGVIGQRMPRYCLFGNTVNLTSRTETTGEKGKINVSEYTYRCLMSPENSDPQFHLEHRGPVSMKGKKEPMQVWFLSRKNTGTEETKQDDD
Test: Guanylate Cyclase Assay (formation of cyclic GMP from GTP)
Type: biochemical
Settings: for Mean activation at 100 μM: (activity at 100 μM with 1 μM SNP − activity at 100 μM)/(activity of SNP at 1 μM − basal activity of sGC); for Mean efficacy at 100 μM with 1 μM of SNP, [% of YC-1]: compound at 100 μM with 1 μM sodium nitroprusside (SNP), normalized to 100 μM YC-1 (without SNP) as 100%; for Emax at 100 µM / Mean basal efficacy at 100 μM, [% of YC-1]: compound at 100 μM without SNP, normalized to activity of 100 μM YC-1 (without SNP) as 100%; for Emax at 100 µM: read-out: Mean basal efficacy at 100 μM, [% of YC-1]
Procedure: Sf9 cells were cultured in Sf-90011 medium supplemented with 10% (v/v) fetal calf serum at 28° C. to give a count of 6×10^5 cells/ml. The cells were then infected with a mixture of the virus stocks for the α1 and β1 subunits of guanylate cyclase at a multiplicity of infection of 0.1 pfu/cell. The cells were harvested 72 hours after infection and were pelleted by centrifugation. The resulting cell pellets were homogenized with Polytron homogenizer in 3 volumes of 20 mM Tris-HCl (pH 7.6) containing 1 mM EDTA, 5 mM dithiothreitol, 90 mM NaCl, 10% glycerol, and protease inhibitors mix (Roche Molecular Biochemicals). The homogenate was centrifuged at 50,000×g for 60 minutes and the supernatant was aliquotted and stored at −80° C.
Compounds of the present invention were dissolved in DMSO to make 100 mM and saved as stocks at −20° C. When compounds were tested, 10-fold concentrated solutions with 10% DMSO were prepared. 10 μl of 10-fold concentrated compound solutions were added to the reaction mixture total of 100 μl.
Guanylate cyclase activity was measured by the formation of cyclic GMP from GTP in a total volume of 100 μl. Guanylate cyclase-expressed Sf9 cell high-speed supernatant (Sf9 high-speed sup) was used as an enzyme source for the assay. The reaction mixture containing 0.1 μl enzyme of Sf9 high-speed sup, compound solution, 50 mM Tris-HCl (pH 7.6), 4 mM MgCl2, 0.5 mM IBMX, 15 mM creatine phosphate, 20 μg creatine phosphokinase, 0.1% BSA and 1 mM GTP were incubated at 37° C. for 15 minutes. After the reaction, 0.9 ml of 50 mM sodium acetate buffer (pH 5.8) was added followed by boiling for 3 minutes to stop the reaction. The solution was centrifuged at 3000 rpm for 15 minutes at room temperature and cyclic GMP in 20 μl of the resulting supernatant was measured according to the protocol of Amersham cyclic GMP enzymeimmunoassay system (Amersham, RPN 226).
Compounds of the present invention were tested at 100 μM with and without 1 μM of sodium nitroprusside (SNP). YC-1 was included as a standard for each assay. The data was normalized with the activity of 100 μM YC-1 (without SNP) as 100%. Mean basal efficacy, in Table 1, was expressed as a percentage of 100 μM YC-1 (without SNP).
The mean activation, in Table 1, was calculated based on the formula: (activity of compound of the present invention at 100 μM with 1 μM SNP)−(activity of compound of on at 100 μM)/(activity of SNP at 1 μM)−(basal activity of sGC).

SMILES	Mean activation at 100 μM	Mean efficacy at 100 μM with 1 μM of SNP, [% of YC-1]	Emax at 100 µM [%]	Mean basal efficacy at 100 μM, [% of YC-1]
CN(C)CCCNC(=O)c1ccc(Oc2nn(Cc3ccccc3)c3ccccc23)o1 [Example 5, 5-[(1-benzyl-1H-indazol-3-yl)oxy]-N-[3-(dimethylamino)propyl]-2-furamide]	1.7	65 % of YC-1	4	–
CC(CCCC(C)(C)O)NC(=O)c1ccc(Oc2nn(Cc3ccccc3)c3ccccc23)o1 (centres unmarked) [Example 8, 5-[(1-benzyl-1H-indazol-3-yl)oxy]-N-(5-hydroxy-1,5-dimethylhexyl)-2-furamide]	1.5	9 % of YC-1	0	–
FC(F)(F)c1cncc(Oc2nn(Cc3ccccc3)c3ccccc23)c1 [Example 13, 1-benzyl-3-{[5-(trifluoromethyl)-3-pyridinyl]oxy}-1H-indazole]	1.4	15 % of YC-1	3	–
O=C(NCC(O)c1ccccc1)c1ccc(Oc2nn(Cc3ccccc3)c3ccccc23)o1 (centres unmarked) [Example 9, 5-[(1-benzyl-1H-indazol-3-yl)oxy]-N-(2-hydroxy-2-phenylethyl)-2-furamide]	1.6	13 % of YC-1	0	–
c1ccc(Cn2nc(Oc3ccccn3)c3ccccc32)cc1 [Example 11, 1-benzyl-3-(2-pyridinyloxy)-1H-indazole]	2.8	70 % of YC-1	9	–
OCc1ccc(Oc2nn(Cc3ccccc3)c3ccccc23)o1 [Example 1, {5-[(1-benzyl-1H-indazol-3-yl)oxy]-2-furyl}methanol]	–	38 % of YC-1	9	–
O=C(NCCN1CCOCC1)c1ccc(Oc2nn(Cc3ccccc3)c3ccccc23)o1 [Example 10, 5-[(1-benzyl-1H-indazol-3-yl)oxy]-N-[2-(4-morpholinyl)ethyl]-2-furamide]	2.0	11 % of YC-1	1	–
O=C(NN1CCOCC1)c1ccccc1Oc1nn(Cc2ccccc2)c2ccccc12 [Example 25]	1.9	14 % of YC-1	–	4 % of YC-1
CCCC(CO)NC(=O)c1ccc(Oc2nn(Cc3ccccc3)c3ccccc23)o1 (centres unmarked) [Example 7, 5-[(1-benzyl-1H-indazol-3-yl)oxy]-N-[1-(hydroxymethyl)butyl]-2-furamide]	3.1	25 % of YC-1	3	–

Second part, led by results:

Mean activation at 100 μM	Mean efficacy at 100 μM with 1 μM of SNP, [% of YC-1]	Emax at 100 µM [%]	SMILES	Mean basal efficacy at 100 μM, [% of YC-1]
1.9	15 % of YC-1	6	CN(C)CCNC(=O)c1ccccc1Oc1nn(Cc2ccccc2)c2ccccc12 [Example 16, 2-[(1-benzyl-1H-indazol-3-yl)oxy]-N-[2-(dimethylamino)ethyl]benzamide]	–
2.6	47 % of YC-1	4	O=C(O)c1ccccc1Oc1nn(Cc2ccccc2)c2ccccc12 [Example 15, 2-[(1-benzyl-1H-indazol-3-yl)oxy]benzoic acid]	–
1.5	10 % of YC-1	5	CN(C)CCCNC(=O)c1ccccc1Oc1nn(Cc2ccccc2)c2ccccc12 [Example 18, 2-[(1-benzyl-1H-indazol-3-yl)oxy]-N-[3-(dimethylamino)propyl]benzamide]	–
2.0	14 % of YC-1	4	CN(C)CCCN1CCN(C(=O)c2ccccc2Oc2nn(Cc3ccccc3)c3ccccc23)CC1 [Example 17, N-[3-(4-{2-[(1-benzyl-1H-indazol-3-yl)oxy]benzoyl}-1-piperazinyl)propyl]-N,N-dimethylamine]	–
1.7	12 % of YC-1	5	O=C(NCCCn1ccnc1)c1ccccc1Oc1nn(Cc2ccccc2)c2ccccc12 [Example 24, 2-[(1-benzyl-1H-indazol-3-yl)oxy]-N-[3-(1H-imidazol-1-yl)propyl]benzamide]	–
1.5	11 % of YC-1	6	O=C(N[C@H]1Cc2ccccc2[C@H]1O)c1ccccc1Oc1nn(Cc2ccccc2)c2ccccc12 [Example 20, 2-[(1-benzyl-1H-indazol-3-yl)oxy]-N-[(1R,2S)-1-hydroxy-2,3-dihydro-1H-inden-2-yl]benzamide]	–
1.9	12 % of YC-1	3	O=C(NC1CCC(O)CC1)c1ccccc1Oc1nn(Cc2ccccc2)c2ccccc12 (centres unmarked) [Example 19, 2-[(1-benzyl-1H-indazol-3-yl)oxy]-N-(4-hydroxycyclohexyl)benzamide]	–
2.1	13 % of YC-1	2	O=C(NCC(O)c1ccccc1)c1ccccc1Oc1nn(Cc2ccccc2)c2ccccc12 (centres unmarked) [Example 22, 2-[(1-benzyl-1H-indazol-3-yl)oxy]-N-(2-hydroxy-2-phenylethyl)benzamide]	–
1.9	27 % of YC-1	6	O=C(O)c1ccc(Cn2nc(OCc3ccccc3)c3ccccc32)o1 [Example 28, 5-{[3-(benzyloxy)-1H-indazol-1-yl]methyl}-2-furoic acid]	–
1.7	18 % of YC-1	-2	C(=Cc1ccccc1)Cn1nc(OCc2ccccc2)c2ccccc21 [Example 27, 3-(benzyloxy)-1-[3-phenyl-2-propenyl]-1H-indazole]	–
2.7	224 % of YC-1	–	OCc1ccc(-c2nn(Cc3ccccc3)c3ccccc23)o1 [YC-1, reference compound]	100 % of YC-1
